Results reported in patent US12611398B2 (ORPHAI THERAPEUTICS INC., priority 2014, dated 2026).
“And” between values parts separate entries of the source, which are not always exact repeats. Identical values can stand only once. “Also recorded” adds a separate entry of the source. Like-named read-outs stand apart in the source and are kept apart here.

Key:
[1] = Particle size distribution by laser diffraction; assay type: physicochemical
Procedure: For jet milling, a lab scale MCOne unit from Jetpharma was used with the following operating conditions: venturi pressure 2-4 bar, milling pressure 3-5 bar, feed rate 90 g/h. For wet polishing, feed suspensions were prepared using purified water. A microfluidics high pressure homogenizer was used for the size reduction step and the resulting suspension was spray-dried. Details of the wet polishing process are set forth below.
The high pressure homogenizer used for the size reduction step of the wet polishing process was a pilot-scale Microfluidics High Pressure Homogenizer equipped with an auxiliary processing module (200 micron) and a 100 micron interaction chamber was used. The unit was operated at ˜455 bar (˜30 bar in the intensifier module hydraulic pressure). After microfluidization the fluid was removed by spray drying to generate a dry powder. A laboratory scale spray dryer, SD45 (BÜCHI, model B-290 Advanced) was equipped with a two fluid nozzle (cap and diameter were 1.4 and 0.7 mm, respectively). Two cyclones in series were used (being the first the standard Buchi cyclone and the second the high-performance Buchi cyclone) to collect the dried product. The spray drying unit was operated with nitrogen and in single pass mode, i.e. without recirculation of the drying nitrogen. The aspirator, blowing nitrogen, was set at 100% of its capacity (flow rate at maximum capacity is approximately 40 kg/h). The flow rate of the atomization nitrogen was adjusted to a value in the rotameter of 40±5 mm. Before feeding the product suspension, the spray dryer was stabilized with purified water, during which the flow rate was adjusted to 6 ml/min (20% in the peristaltic pump). The inlet temperature was adjusted to achieve the target outlet temperature (45° C.). After stabilization of the temperatures, the feed of the spray dryer was commuted from purified water to the product suspension (keeping the same flow rate used during stabilization) and the inlet temperature once again adjusted in order to achieve the target outlet temperature. At the end of the stock suspension, the feed was once more commuted to purified water in order to rinse the feed line and perform a controlled shut down. The dry product in the collection flasks under both cyclones was weighed and the yield calculated as the mass percentage of the dry product in relation to the total solids in the suspension fed to the high pressure homogenizer.
Particle size distribution was analyzed by laser diffraction. Solid state characterization (for polymorphic form and purity) was performed by high pressure liquid chromatography (HPLC), X-ray powder diffraction (XRPD), and differential scanning calorimetry (mDSC). Water content was determined by the Karl Fischer method.

[2] = lymphangioleiomyomatosis patients, McCormack et al. (2011); cited from earlier work
[3] = human, Rapamune NDA 21-110 and 21-083; cited from earlier work
[4] = 24 hours after 14th dose, cited from earlier work
[5] = 28-day repeat daily dose inhalation toxicity and toxicokinetics, dog study 7300227; settings: beagle, in vivo
Description: For the dog study, a positive flow delivery system (PFDS) consisting of a central plenum and delivery arms was utilized. The central plenum was of modular design with separate ports into which were attached 5 delivery arms fitted with oronasal exposure masks fitted with inlet and outlet tubes. The mask was fitted over the dog's muzzle in such a way that the nose was inside the mask, allowing entrance and exit of air. During exposure, animals wore a harness and were placed on a restraint platform. The harness was attached to two side poles on the platform in order to restrict lateral movement of the dog. The front part of the harness was loosely attached to a hook on the front of the platform to prevent the animal from turning around. […] For each dosing group, one set of animals (N=6) was dosed for 60 minutes each day for 28 consecutive days.

[6] = test system: phosphorylated S6 protein (biomarker for mTOR activity); test: S6 phosphorylation in mouse lung following oral and OPA administration; assay type: in vivo, C57bl/6 mice
Description: To validate this approach, we used the presence of phosphorylated S6 protein in murine lung tissue as a biomarker for mTOR activity. In the mouse strain used (C57b1/6), the mouse airway and alveolar epithelial cells have constitutively active (phosphorylated, “p”) S6 protein. The S6 protein is typically phosphorylated by S6K which is downstream of mTORC1 and is activated, for example downstream of growth factors such as epidermal growth factor (EGF), AKT, ERK, and RSK. mTORC1 promotes cell growth and proliferation by stimulating anabolic processes such as biosynthesis of lipids, proteins, and organelles, and suppressing catabolic processes such as autophagy.

[7] = test system: phosphorylated S6 (mTOR pathway); test: S6 phosphorylation by western blot in AML cells; assay type: cell-based, human; settings: 20 nM, 24 hours
[8] = 28-day repeat daily dose inhalation toxicity and toxicokinetics, rat study 7300225; settings: for Max blood levels: rat, average of D28
Procedure: (§1) A second repeat exposure study was conducted to evaluate the repeat dose toxicity and toxicokinetics of the dry powder formulation administered to SD rats and Beagle dogs for 28 days.
(§2) For the rat study, standard cylindrical flow-through nose-only inhalation chambers were utilized, as above. […] For each of the three dosing groups, one set of animals (N=36) were dosed for 300 minutes each day for 28 consecutive days. On Study Days 1 and 28, blood samples were taken from animals in subgroups of 6 at the following time points: (1) Predose, (2) Midway dosing, (3) Immediate post dosing, (4) 2 hours post dosing, (5) 4 hours post dosing, (6) 12 hours post dosing and (7) 24 hours post dosing.

[9] = test system: TSC2 deficient TRI-AML101 cell line; test: Cell viability, CellTiter-Glo luminescence assay, 10 point dose response; settings: 72 hours after compound addition, relative to DMSO control
Procedure: Two thousand cells in 50 uL of growth media (DMEM, 10% FBS, and 1% Penicillin/Streptomycin) were plated per well in a 96 well plate. […] 72 hours after compound addition, relative cell viability was determined by CellTiter-Glo® luminescence assay (Promega) and expressed as a percentage relative to vehicle (DMSO) treated control cells.

in vivo = settings: Sprague-Dawley, rat
Procedure: as §1, §2

[10] = Rapamycin in lung and blood after oropharyngeal aspiration (OPA) and oral gavage, LC-MS/MS; assay type: in vivo, C57BL/6 mice
Procedure: Dosing: Each animal was weighed prior to dosing to determine the amount of dose to be administered. A single gavage dose was administered using a 100-μL glass syringe (Hamilton, Reno, Nev.) fitted with a ball-tipped 20-G stainless steel gavage dosing needle (Popper & Sons Inc., New Hyde Park, N.Y.). The dose administered to each animal was determined from the weight of the full syringe minus that of the empty syringe. The dosing time was recorded. Dosing of animals was spaced apart to allow blood collection at the appropriate times. The dose formulations administered to each group are shown below.
Each mouse was anesthetized with isoflurane and restrained with the mouth open. The tongue was held to one side of the mouth with forceps, and the dose was slowly injected into the distal part of the oral cavity. The nostrils were covered with a finger for two breaths to ensure aspiration (Rao et al., 2003).
Collection of Blood and Lung Samples: At study termination (1 or 72 h after dosing), mice were anesthetized by exposure to CO2, and blood was collected by cardiac puncture with dipotassium EDTA as anticoagulant. Lung tissue was excised and divided into the right and left lung. The left lung was used for analysis, and the right lung flash frozen in liquid nitrogen and stored at −70° C. for further analysis.
Triamcinolone was used as internal standard.
Lung homogenate was prepared by homogenization of weighed lung samples with 2.8-mm ball bearings in a homogenizer with tissue+deionized water (1:3 w/v) in a SPEX SamplePrep 2010 Geno/Grinder.
The concentrations of standards were arranged so that each standard came from an alternate stock standard. A six-point calibration curve, each made in triplicate, was employed for analyte quantitation. A simple linear regression model with or without weighting was employed for curve fitting. The concentration range determined was from 1-2000 ng/mL in blood and 2-2000 ng/mL in lung homogenate.
Thirty (30) μL of matrix, 30 μL of spiking solution (methanol for blanks and samples), 10 μL Internal standard solution (in MeOH) and 90 μL of MeOH were pipetted into microcentrifuge tubes, vortexed briefly, then centrifuged for 6 min at 10,000 RPM at −4° C. Aliquots (90 μL) of supernatant were transferred to LC vial inserts, and then analyzed by LC-MS/MS (Table 2).

[11] = Observation for adverse effects / clinical signs after dosing; assay type: in vivo, C57BL/6 mice; settings: 1 mg/kg, up to 72 h following dosing
Procedure: The oral dose was formulated using pharmaceutical oral liquid formulation Rapamune Oral® (Pfizer). […] An additional group of 6 mice received vehicle only (10% ethanol in water). […] At the 72-h necropsy, blood was obtained by cardiac puncture and the lungs removed.
The time of dosing was recorded as 0. Animals in groups 2 and 3 were euthanized at 1 h after dosing.

[12] = Extrapolation of rat and dog inhalation data to human dosing; settings: extrapolated
[13] = test system: Phospho-S6 Ribosomal Protein (Ser240/244); test: S6 phosphorylation in rat lung homogenate, western blot (S6-P/total S6); assay type: in vivo, Sprague-Dawley rats; settings: inhalation, target dose 0.354 mg/kg
Procedure: Lungs samples from each animal were collected and snap frozen. The individual frozen lung samples were homogenized (Qiagen TissueLyser LT according to manufacturer's protocols) in 1×RIPA Buffer with protease and phosphatase inhibitors. […] The Western blot images were analyzed by NIH image) v1.48 to generate the respective antibody reactivity/intensity and create the ratio of S6 phosphorylation (S6-P) to total S6 intensities for each lung sample. The 56-P/total S6 ratios (y-axis) for sample organized by timepoint group (X-axis) were plotted on a one grouping variable scatter plot vertical graph (GraphPad, version 4.0), all samples in groups are represented by filled in black dots (●) on the graph and average is shown by the horizontal line between the dots within each respective group (FIG. 8B).

[14] = IV 10 mg/kg single dose, 24 hours; cited from earlier work
[15] = 2012 meta-analysis of published trials; cited from earlier work
[16] = emitted dose 87 ug, repeat inhaled daily dose 35 ug
[17] = emitted dose 175 ug, repeat inhaled daily dose 70 ug

SMILES: CO[C@H]1C[C@@H]2CC[C@@H](C)[C@@](O)(O2)C(=O)C(=O)N2CCCC[C@H]2C(=O)O[C@H]([C@H](C)C[C@@H]2CC[C@@H](O)[C@H](OC)C2)CC(=O)[C@H](C)/C=C(\C)[C@@H](O)[C@@H](OC)C(=O)[C@H](C)C[C@H](C)/C=C/C=C/C=C/1C [Rapamycin]
- PSD Dv10 ([1]; jet milling): 1.5 μm and 1.51 μm
- PSD Dv50 ([1]; jet milling): 2.7 μm and 2.74 μm
- PSD Dv90 ([1]; jet milling): 4.9 μm and 4.91 μm
- PSD Dv10 ([1]; wet polishing): 1.0 μm and 1.05 μm
- PSD Dv50 ([1]; wet polishing): 2.4 μm and 2.42 μm
- PSD Dv90 ([1]; wet polishing): 5.0 μm and 4.97 μm
- blood concentrations [2]: 5 to 15 ng/mL
- clearance [3]: 0.0003 min⁻¹
- Rapamycin in Blood ([4]; IV 0.04 mg/kg/day): 9.4 ng/mL
- Rapamycin in Lung ([4]; IV 0.04 mg/kg/day): 219 ng/g
- Rapamycin in Blood ([4]; IV 0.08 mg/kg/day): 15.0 ng/mL
- Rapamycin in Lung ([4]; IV 0.08 mg/kg/day): 457 ng/g
- Rapamycin in Blood ([4]; IV 0.40 mg/kg/day): 19.6 ng/mL
- Rapamycin in Lung ([4]; IV 0.40 mg/kg/day): 868 ng/g
- Rapamycin in Blood ([4]; oral 0.4 mg/kg/day): 0.8 ng/mL
- Rapamycin in Lung ([4]; oral 0.4 mg/kg/day): 42 ng/g
- Rapamycin in Blood ([4]; oral 0.8 mg/kg/day): 2.1 ng/mL
- Rapamycin in Lung ([4]; oral 0.8 mg/kg/day): 59 ng/g
- NOAEL at 28 days [5]: 0.0134 mg/kg/day
- level of phosphorylated S6 (pS6) in lung ([6]; 1 mg/kg OPA, 1 hr): reduced substantially
- level of phosphorylated S6 (pS6) in lung ([6]; 1 mg/kg OPA, 72 hr): remained suppressed
- level of phosphorylated S6 (pS6) in lung ([6]; 1 mg/kg oral gavage, 1 hr): reduced substantially
- S6 phosphorylation [7]: potently inhibits S6 phosphorylation
- respiratory function ([8]; nose-only inhalation): no changes in respiratory function
- Max blood levels ([8]; emitted dose 50 ug, repeat inhaled daily dose 5 ug): 7.6 ng/mL
- Max blood levels ([8]; emitted dose 1425 ug, repeat inhaled daily dose 143 ug): 70.5 ng/mL
- Max blood levels ([8]; emitted dose 2850 ug, repeat inhaled daily dose 285 ug): 77.8 ng/mL
- lowest concentration inhibiting viability [9]: 0.05 nM
- NOAEL at 28 days (in vivo): 8.91 mg/kg/day
- Rapamycin in Blood ([10]; OPA 1 mg/kg, 72 h): below the limit of quantitation; also recorded: undetectable
- Blood concentration ([10]; OPA 1 mg/kg, 72 h post-dose, individual animal): <ELOQ
- Lung concentration ([10]; gavage (Rapamune Oral) 1 mg/kg, 1 h post-dose, individual animal, 1 mg/kg): <LOQ
- rapamycin in lung or blood ([10]; oral (gavage) 1 mg/kg, 72 hrs): undetectable
- adverse effects / clinical signs [11]: No adverse effects were observed; also recorded: No significant clinical signs were observed
- Blood trough levels [12, 16]: 0.15 ng/mL
- Lung 24 hr trough levels [12, 16]: 2 ng/g
- Max blood levels [12, 16]: 0.65 ng/mL
- Blood trough levels [12, 17]: 0.3 ng/mL
- Lung 24 hr trough levels [12, 17]: 4 ng/g
- Max blood levels [12, 17]: 1.3 ng/mL
- S6 phosphorylation in lung tissue [13]: Inhibits S6 Phosphorylation
- Rapamycin in Blood [14]: 31 ng/mL
- Rapamycin in Lung [14]: 721 ng/g

SMILES: CO[C@H]1C[C@@H]2CC[C@@H](C)[C@@](O)(O2)C(=O)C(=O)N2CCCC[C@H]2C(=O)O[C@H]([C@H](C)C[C@@H]2CC[C@@H](OCCO)[C@H](OC)C2)CC(=O)[C@H](C)/C=C(\C)[C@@H](O)[C@@H](OC)C(=O)[C@H](C)C[C@H](C)/C=C/C=C/C=C/1C [everolimus]
- cancer patients experiencing mild grade pulmonary toxicity [15]: 10%

SMILES: CO[C@H]1C[C@@H]2CC[C@@H](C)[C@@](O)(O2)C(=O)C(=O)N2CCCC[C@H]2C(=O)O[C@H]([C@H](C)C[C@@H]2CC[C@@H](OC(=O)C(C)(CO)CO)[C@H](OC)C2)CC(=O)[C@H](C)/C=C(\C)[C@@H](O)[C@@H](OC)C(=O)[C@H](C)C[C@H](C)/C=C/C=C/C=C/1C [temsirolimus]
- cancer patients experiencing mild grade pulmonary toxicity [15]: 10%
